The assay has as its system HBV. The experiment in a line: HBV-DNA antiviral assay using HepG2.117 cells (intracellular HBV DNA by qPCR). Type of assay: cell-based, HBV genotype D. The following applies: HBV DNA inhibition, 3 days incubation, read-out: EC50. The gist of the method:
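Read-outs: cell-lysate HBV DNA copies by qPCR (interpolated from gBlock standard) and parallel cellular ATP luminescence for CC50, both normalised to 2% DMSO controls and fitted by non-linear regression. HepG2.117 Tet-off genotype D HBV cells, induced by doxycycline removal, exposed 3 days to 4-fold serial dilutions.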
A general note: In qPCR the cycle at which signal appears reflects the starting amount.

[1] abbreviates: Hepatitis B virus, HepG2.117, 72 h.

Each structure is given as a SMILES string. Like-named read-outs stand apart in the source and are kept apart here.

As for `CC1Cn2c(c(C(=O)NCc3ccccc3-c3ccncn3)n(-c3ccc4oc(N)nc4c3)c2=O)CN1C(=O)c1ccc(Br)c(C(F)(F)F)c1` (single isomer, unassigned) [Compound 93a, (6R*)-2-(2-amino-1,3-benzoxazol-5-yl)-7-[4-bromo-3-(trifluoromethyl)benzoyl]-6-methyl-3-oxo-N-{[2-(pyrimidin-4-yl)phenyl]methyl}-5H,6H,8H-imidazo[1,5-a]pyrazine-1-carboxamide], the 50% effective concentration (EC50) (as a rule, the midpoint of the concentration-response curve) was 500 to 5000 nM.

Consider `CC1Cn2c(c(C(=O)NCc3c(F)cccc3-n3cccn3)n(-c3ccc(OC4CC4)cc3)c2=O)CN1C(=O)c1ccc(Br)c(Cl)c1` (single isomer, unassigned) [Compound 24a], for which, under setting [1], the EC50 lay within 50 to 500 nM.

In the case of `CC1Cn2c(c(C(=O)NCc3ccccc3-c3cc[nH]n3)n(-c3ccc(OC4CC4)cc3)c2=O)CN1C(=O)c1ccc(Br)c(Cl)c1` (single isomer, unassigned) [Compound 51b], the concentration for a half-maximal effect (EC50) was under 50 nM.

Consider `CC1Cn2c(c(C(=O)NCc3ccccc3-c3ccncn3)n(-c3ccc(OC4CC4)cc3)c2=O)CN1C(=O)c1ccc(Br)c(C(F)F)c1` (single isomer, unassigned) [Compound 16b, 7-[4-bromo-3-(difluoromethyl)benzoyl]-2-[4-(cyclopropoxy)phenyl]-6-methyl-3-oxo-N-[(2-pyrimidin-4-ylphenyl)methyl]-6,8-dihydro-5H-imidazo[1,5-a]pyrazine-1-carboxamide], for which the EC50 was under 50 nM.

On to `CC1Cn2c(c(C(=O)NCc3ccccc3-c3nnco3)n(-c3ccc(N4CC5(CN(C)C5)C4)cc3)c2=O)CN1C(=O)c1ccc(Br)c(C(F)(F)F)c1` (single isomer, unassigned) [Compound 112b], for which the EC50 is 500 to 5000 nM.

As to `C[C@H]1Cn2c(c(C(=O)NCc3ccccc3-c3ccccn3)n(-c3ccc(OC[C@H](O)C(F)(F)F)cc3)c2=O)CN1C(=O)c1ccc(Br)c(C(F)(F)F)c1` (mixture of isomers) [Compound 69b, (6SR)-7-[4-bromo-3-(trifluoromethyl)benzoyl]-6-methyl-3-oxo-N-[[2-(2-pyridyl)phenyl]methyl]-2-[4-[(2S)-3,3,3-trifluoro-2-hydroxy-propoxy]phenyl]-6,8-dihydro-5H-imidazo[1,5-a]pyrazine-1-carboxamide], the EC50 under setting [1] fell in the range of 50 to 500 nM.

In the case of `C[C@H]1Cn2c(c(C(=O)NCc3ccccc3-c3ccccn3)n(-c3ccc(OC[C@@](C)(O)C(F)(F)F)cc3)c2=O)CN1C(=O)c1ccc(Br)c(C(F)(F)F)c1` (stereo in doubt) [Compound 89b, rac-(6S)-7-[4-bromo-3-(trifluoromethyl)benzoyl]-6-methyl-3-oxo-N-[[2-(2-pyridyl)phenyl]methyl]-2-[4-[rac-(2R)-3,3,3-trifluoro-2-hydroxy-2-methyl-propoxy]phenyl]-6,8-dihydro-SH-imidazo[1,5-a]pyrazine-1-carboxamide], the EC50 under setting [1] is under 50 nM.

On to `C[C@@H]1Cn2c(c(C(=O)NCc3c(F)cccc3-c3ccccn3)n(-c3ccc(OC4CC4)cc3)c2=O)CN1C(=O)c1ccc(Br)c(C(F)(F)F)c1` (racemic) [Compound 41a, rac-(6R)-7-[4-bromo-3-(trifluoromethyl)benzoyl]-2-[4-(cyclopropoxy)phenyl]-N-[[2-fluoro-6-(2-pyridyl)phenyl]methyl]-6-methyl-3-oxo-6,8-dihydro-5H-imidazo[1,5-a]pyrazine-1-carboxamide], for which, under setting [1], the concentration giving a half-maximal response (EC50) is under 50 nM.

As for `CC1Cn2c(c(C(=O)NCc3ccccc3-c3cccnn3)n(-c3ccc(OC4CC4)cc3)c2=O)CN1C(=O)c1ccc(Br)c(Cl)c1` (single isomer, unassigned) [Compound 7a, 7-(4-bromo-3-chloro-benzoyl)-2-[4-(cyclopropoxy)phenyl]-6-methyl-3-oxo-N-[(2-pyridazin-3-ylphenyl)methyl]-6,8-dihydro-5H-imidazo[1,5-a]pyrazine-1-carboxamide], under setting [1], the EC50 lay in the range of 50 to 500 nM.

On to `CC1Cn2c(c(C(=O)NCc3ccccc3-c3cccnn3)n(-c3ccc(N4CC5(CN(C)C5)C4)cc3)c2=O)CN1C(=O)c1ccc(Br)c(C(F)(F)F)c1` (single isomer, unassigned) [Compound 76b], for which the concentration giving a half-maximal response (EC50) was in the range of 500 to 5000 nM.

As to `O=C(NCc1ccccc1)c1c2n(c(=O)n1-c1ccc3ocnc3c1)CCN(C(=O)c1ccc(Br)c(Cl)c1)C2` [Compound 126, 2-(1,3-benzoxazol-5-yl)-N-benzyl-7-(4-bromo-3-chloro-benzoyl)-3-oxo-6,8-dihydro-5H-imidazo[1,5-a]pyrazine-1-carboxamide], the EC50 under setting [1] fell in the range of 500 to 5000 nM.

In the case of `CC1Cn2c(c(C(=O)NCc3ccccc3-c3ncccn3)n(-c3ccc4c(cnn4C[C@@H](C)O)c3)c2=O)CN1C(=O)c1ccc(Br)c(C(F)(F)F)c1` (stereo in doubt) [Compound 91b, (6S*)-7-[4-bromo-3-(trifluoromethyl)benzoyl]-2-{1-[(2R)-2-hydroxypropyl]indazol-5-yl}-6-methyl-3-oxo-N-{[2-(pyrimidin-2-yl)phenyl]methyl}-5H,6H,8H-imidazo[1,5-a]pyrazine-1-carboxamide], the EC50 lay within 50 to 500 nM.

Regarding `CC1Cn2c(c(C(=O)NCc3ccccc3-c3ncccn3)n(-c3ccc4c(c3)nnn4CC(F)(F)F)c2=O)CN1C(=O)c1ccc(Br)c(C(F)(F)F)c1` (single isomer, unassigned) [Compound 103a], the concentration for a half-maximal effect (EC50) under setting [1] lay within 50 to 500 nM.

`CC1Cn2c(c(C(=O)NCc3ccccc3-c3ccncn3)n(-c3ccc(OC[C@@H](C)O)cc3)c2=O)CN1C(=O)c1ccc(Br)c(C(F)(F)F)c1` (stereo in doubt) [Compound 55b, (6S*)-7-[4-bromo-3-(trifluoromethyl)benzoyl]-2-{4-[(2R)-2-hydroxypropoxy]phenyl}-6-methyl-3-oxo-N-{[2-(pyrimidin-4-yl)phenyl]methyl}-5H,6H,8H-imidazo[1,5-a]pyrazine-1-carboxamide]: the EC50 is under 50 nM.

For the molecule `CC1Cn2c(c(C(=O)NCc3ccccc3-c3ncccn3)n(-c3ccc4c(cnn4C4CNC4)c3)c2=O)CN1C(=O)c1ccc(Br)c(C(F)(F)F)c1` (single isomer, unassigned) [Compound 109b], the EC50 was 500 to 5000 nM.

`CC1Cn2c(c(C(=O)NCc3c(F)cccc3Cl)n(-c3ccc4c(cnn4CC(F)(F)F)c3)c2=O)CN1C(=O)c1ccc(Br)c(C(F)(F)F)c1` (single isomer, unassigned) [Compound 104a]: under setting [1], the 50% effective concentration (EC50) was under 50 nM.

For the molecule `Cc1cnn(-c2ccccc2CNC(=O)c2c3n(c(=O)n2-c2ccc(OC4CC4)cc2)CC(C)N(C(=O)c2ccc(Br)c(Cl)c2)C3)c1` (single isomer, unassigned) [Compound 6b, 7-(4-bromo-3-chloro-benzoyl)-2-[4-(cyclopropoxy)phenyl]-6-methyl-N-[[2-(4-methylpyrazol-1-yl)phenyl]methyl]-3-oxo-6,8-dihydro-5H-imidazo[1,5-a]pyrazine-1-carboxamide], the EC50 was under 50 nM.

As to `CC1Cn2c(c(C(=O)NCc3ccccc3-n3cc(N)cn3)n(-c3ccc(OC4CC4)cc3)c2=O)CN1C(=O)c1ccc(Br)c(Cl)c1` (single isomer, unassigned) [Compound 19a], the EC50 lay in the range of 500 to 5000 nM.

Regarding `C[C@H]1Cn2c(c(C(=O)NCc3ccccc3-c3ccncn3)n(-c3ccc(OC[C@](C)(O)C(F)(F)F)cc3)c2=O)CN1C(=O)c1ccc(Br)c(C(F)(F)F)c1` (stereo in doubt) [Compound 83b, rac-(6S)-7-[4-bromo-3-(trifluoromethyl)benzoyl]-6-methyl-3-oxo-N-[(2-pyrimidin-4-ylphenyl)methyl]-2-[4-[rac-(2S)-3,3,3-trifluoro-2-hydroxy-2-methyl-propoxy]phenyl]-6,8-dihydro-5H-imidazo[1,5-a]pyrazine-1-carboxamide], the EC50 under setting [1] fell in the range of 50 to 500 nM.

On to `C[C@@H]1Cn2c(c(C(=O)NCc3ccccc3-c3ncccn3)n(-c3ccc4c(cnn4C[C@H](O)C(F)(F)F)c3)c2=O)CN1C(=O)c1ccc(Br)c(C(F)(F)F)c1` (mixture of isomers) [Compound 102a, (6RS)-7-[4-bromo-3-(trifluoromethyl)benzoyl]-6-methyl-3-oxo-N-[(2-pyrimidin-2-ylphenyl)methyl]-2-[1-[(2S)-3,3,3-trifluoro-2-hydroxy-propyl]indazol-5-yl]-6,8-dihydro-5H-imidazo[1,5-a]pyrazine-1-carboxamide], for which, under setting [1], the EC50 was in the range of 50 to 500 nM.

Consider `CC1(O)CN(c2ccc(-n3c(C(=O)NCc4ccccc4)c4n(c3=O)CCN(C(=O)c3ccc(Br)c(Cl)c3)C4)cc2)C1` [Compound 117, N-benzyl-7-(4-bromo-3-chloro-benzoyl)-2-[4-(3-hydroxy-3-methyl-azetidin-1-yl)phenyl]-3-oxo-6,8-dihydro-5H-imidazo[1,5-a]pyrazine-1-carboxamide], for which the half-maximal effective concentration (EC50) under setting [1] lay in the range of 50 to 500 nM.

On to `CNc1cc(-c2ccccc2CNC(=O)c2c3n(c(=O)n2-c2ccc(OC4CC4)cc2)C[C@H](C)N(C(=O)c2ccc(Br)c(Cl)c2)C3)ncn1` (stereo in doubt) [Compound 39b, rac-(6S)-7-(4-bromo-3-chloro-benzoyl)-2-[4-(cyclopropoxy)phenyl]-6-methyl-N-[[246-(methylamino)pyrimidin-4-yl]phenyl]methyl]-3-oxo-6,8-dihydro-5H-imidazo[1,5-a]pyrazine-1-carboxamide], for which, under setting [1], the 50% effective concentration (EC50) was under 50 nM.

Turning to `CC1Cn2c(c(C(=O)NCc3ccccc3-c3ccncn3)n(-c3ccc(N4CC5(CCN5C)C4)cc3)c2=O)CN1C(=O)c1ccc(Br)c(C(F)(F)F)c1` (single isomer, unassigned) [Compound 84b], the EC50 was under 50 nM.

On to `CC1Cn2c(c(C(=O)NCc3ccccc3-c3ccncn3)n(-c3ccc(N4CCO[C@H](C(F)(F)F)C4)cc3)c2=O)CN1C(=O)c1ccc(Br)c(C(F)(F)F)c1` (mixture of isomers) [Compound 52b, rac-(6R)-7-[4-bromo-3-(trifluoromethyl)benzoyl]-6-methyl-3-oxo-N-[(2-pyrimidin-4-ylphenyl)methyl]-2-[4-[(2S)-2-(trifluoromethyl)morpholin-4-yl]phenyl]-6,8-dihydro-5H-imidazo[1,5-a]pyrazine-1-carboxamide], for which the EC50 under setting [1] is under 50 nM.

Values taken from patent US11845752B2, “Substituted imidazo[1,5-a]pyrazines for the treatment of hepatitis B” (ALIGOS THERAPEUTICS, INC., priority 2020, dated 2023).
